The numbers were not newly measured in patent US12605362B2, “Eletriptan hydrobromide for treatment of spinal cord injury and improvement of locomotor function” (TECHNOPHAGE, INVESTIGAÇÃO E DESENVOLVIMENTO EM …, priority 2020, dated 2026), which cites them from elsewhere.

For this data set the following is noted: in the presence of the selective 5-HT2 antagonists SB204741 and SB242084; cited from earlier work.

With `c1ccc2nc(N3CCNCC3)ccc2c1` [quipazine], the locomotor-like movements result is given as “induction in locomotor-like movements”.
